Test results from patent publication US4006231A, “N-aminosulfenylated derivatives of carbofuran” (priority 1974, dated 1977).
In brackets after ≈: the same amount, converted by molar mass.

Columns and labels:
adult female houseflies = assay: whole plant or invertebrate; conditions: Musca domestica, topical, 24 h, read-out: Houseflies LD50
Method: Toxicity of the compounds of the present invention to houseflies was tested using the technique described by March and Metcalf (Bull. Calif. State Dept. Agr. 38, No. 2, 93-101 [1949]): Solutions of test compounds in acetone were prepared at a range of concentrations. Adult female houseflies (Muscadomesticus) were treated with one drop of acetone solution, applied to the prothorax, using a syringe calibrated to deliver 1.00 ± 0.05 mm^3 drops. Twenty flies were treated at each dosage, each test compound was applied at 8 to 10 dosage levels. Each test was replicated three times. […] A one-inch square of cotton saturated with 40% sugar solution was provided for food in each carton. The cartons of flies were held in a constant temperature chamber at 60° F and 60% relative humidity for 24 hours before mortality counts were made. Flies totally unable to make crawling or walking movements were counted as dead. LD50 values were calculated in the conventional manner.

[1] = test system: larvae of Culex fatigans (mosquitoes); assay: Toxicity to mosquitoes, fourth-instar larvae; conditions: Culex quinquefasciatus, 24 h, read-out: Mosquitoes LC50
Method: Toxicity of the compounds of the present invention to mosquitoes was tested using the technique described by Mulla, Metcalf and Geib (Mosquito News 28, No. 2, 236 [ 1966]): A 1% (w/v) stock solution was prepared by dissolving the test compound in acetone. The appropriate amount of stock solution was added with stirring to 100 ml of tap water and 20-25 fourth-instar larvae of Culex fatigans were placed in the solution. After 24 hours, the counts were taken. Larvae not able to rise to the surface on touch were counted as dead. Each concentration was run in duplicate and each material was run on two or three different days. The average percent mortality was plotted against the logarithm of the concentration (in ppm) and the LC50 value determined by inspection.

[2] = Acute oral toxicity to mice; conditions: mouse, in vivo
Method: Acute oral toxicity of the compounds of the present invention to mice was determined after the manner of Hollingworth, Fukuto and Metcalf (J. Agr. Food Chem. 15, 235 [ 1967]): Solutions of the compounds at each of a series of concentrations were prepared in olive oil or propylene glycol as solubility required. A dose of 0.25 ml of each solution was administered to each of four female white Swiss mice using the "bolus"-tipped syringe. […] Final mortality determinations were made 48 hours after treatment.

Mexican bean beetle [3] = assay: Initial contact activity, Mexican bean beetle; assay type: in vivo; conditions: Epilachna varivestis, 48 hours exposure, read-out: % Kill, Mexican bean beetle, Initial
Method: (§1) Initial Contact Activity: One-half gram of test compound was dissolved in 40 ml of acetone and this solution was dispersed in 360 ml of water containing one drop of isooctylphenyl polyethoxyethanol. An aliquot of this solution was diluted with water to provide a solution containing 1250 ppm of active ingredient. […] At this time, the dead and living insects (or mites) were counted and the percent kill was calculated.

southern army worm [4] = assay: Initial contact activity, southern army worm; assay type: in vivo, Prodenia eridania; conditions: 1250 ppm, 48 hours exposure
Method: as §1

pea aphid [5] = assay: Initial contact activity, pea aphid; assay type: in vivo, Macrosiphum pisi; conditions: Acyrthosiphon pisum, 48 hours exposure, read-out: % Kill, pea aphid, Initial
Method: as §1

two-spotted spider mite [6] = assay: Initial contact activity, two-spotted spider mite; assay type: in vivo; conditions: Tetranychus urticae, 48 hours exposure, read-out: % Kill, two-spotted spider mite, Initial
Method: as §1

milkweed bug [7] = assay: Initial contact activity, milkweed bug; assay type: in vivo, Oncopeltus fascinatus; conditions: Oncopeltus fasciatus, 48 hours exposure, read-out: % Kill, milkweed bug, Initial
Method: as §1

plum curculio [8] = assay: Initial contact activity, plum curculio; assay type: in vivo; conditions: Conotrachelus nenuphar, 48 hours exposure, read-out: % Kill, plum curculio, Initial
Method: as §1

granary weevil [9] = assay: Initial contact activity, granary weevil; assay type: in vivo; conditions: Sitophilus granarius, 48 hours exposure, read-out: % Kill, granary weevil, Initial
Method: as §1

confused flour beetle [10] = assay: Initial contact activity, confused flour beetle; assay type: in vivo; conditions: Tribolium confusum, 48 hours exposure, read-out: % Kill, confused flour beetle, Initial
Method: as §1

Mexican bean beetle [11] = assay: Residual contact activity (7-day), Mexican bean beetle; assay type: in vivo; conditions: Epilachna varivestis, 48 h, surface aged seven days, read-out: % Kill, Mexican bean beetle, Residual (7-day)
Method: as §1
(§2) Residual Contact Activity: The residual contact activity of the compounds was determined on the same organisms using the technique described above, except that in each case the treated surface was allowed to dry and was exposed to normal light and air for seven days before introduction of the mites or insects. […]

southern army worm [12] = assay: Residual contact activity (7-day), southern army worm; assay type: in vivo, Prodenia eridania; conditions: 1250 ppm, surface aged seven days; 2880 min
Method: as §1, §2

pea aphid [13] = assay: Residual contact activity (7-day), pea aphid; assay type: in vivo, Macrosiphum pisi; conditions: Acyrthosiphon pisum, 48 h, surface aged seven days, read-out: % Kill, pea aphid, Residual (7-day)
Method: as §1, §2

two-spotted spider mite [14] = assay: Residual contact activity (7-day), two-spotted spider mite; assay type: in vivo; conditions: Tetranychus urticae, 48 h, surface aged seven days, read-out: % Kill, two-spotted spider mite, Residual (7-day)
Method: as §1, §2

milkweed bug [15] = assay: Residual contact activity (7-day), milkweed bug; assay type: in vivo, Oncopeltus fascinatus; conditions: Oncopeltus fasciatus, 48 h, surface aged seven days, read-out: % Kill, milkweed bug, Residual (7-day)
Method: as §1, §2

plum curculio [16] = assay: Residual contact activity (7-day), plum curculio; assay type: in vivo; conditions: Conotrachelus nenuphar, 48 h, surface aged seven days, read-out: % Kill, plum curculio, Residual (7-day)
Method: as §1, §2

granary weevil [17] = assay: Residual contact activity (7-day), granary weevil; assay type: in vivo; conditions: Sitophilus granarius, 48 h, surface aged seven days, read-out: % Kill, granary weevil, Residual (7-day)
Method: as §1, §2

confused flour beetle [18] = assay: Residual contact activity (7-day), confused flour beetle; assay type: in vivo; conditions: Tribolium confusum, 48 h, surface aged seven days, read-out: % Kill, confused flour beetle, Residual (7-day)
Method: as §1, §2

Mexican bean beetle [19] = assay: Systemic insecticidal activity, soil-watering technique, Mexican bean beetle; assay type: in vivo; conditions: Epilachna varivestis, 48 h, 25 ml to soil, infested after 3 days, counted 2 days later, read-out: % Kill, Mexican bean beetle, systemic
southern army worm [20] = assay: Systemic insecticidal activity, soil-watering technique, southern army worm; assay type: in vivo, Prodenia eridania; conditions: 156 ppm, 25 ml to soil, infested after 3 days, counted 2 days later
pea aphid [21] = assay: Systemic insecticidal activity, soil-watering technique, pea aphid; assay type: in vivo, Macrosiphum pisi; conditions: Acyrthosiphon pisum, 48 h, 25 ml to soil, infested after 3 days, counted 2 days later, read-out: % Kill, pea aphid, systemic
two-spotted spider mite [22] = assay: Systemic insecticidal activity, soil-watering technique, two-spotted spider mite; assay type: in vivo; conditions: Tetranychus urticae, 48 h, 25 ml to soil, infested after 3 days, counted 2 days later, read-out: % Kill, two-spotted spider mite, systemic

**Q.** What does the source list for `CNC(=O)Oc1cccc2c1OC(C)(C)C2` [Carbofuran, 2,3-dihydro-2,2-dimethyl-7-benzofuranyl methylcarbamate]?
**A.** LD50 (adult female houseflies): ~6.7 mg/kg; LC50 [1]: 0.052 µg/mL (≈ 0.235 µM); LD50 at 48 h [2]: ~2 mg/kg

**Q.** With `CN(C)SN(C)C(=O)Oc1cccc2c1OC(C)(C)C2` [I, 2,3-Dihydro-2,2-dimethyl-7-benzofuranyl (Dimethylaminosulfenyl) (methyl)carbamate] as the molecule, how does the LD50 (adult female houseflies) read?
**A.** ~15 mg/kg

**Q.** And the LC50 [1]?
**A.** 0.027 µg/mL (≈ 0.0911 µM)

**Q.** What about the LD50 at 48 h [2] of the same molecule?
**A.** 10 to 20 mg/kg

**Q.** What about the mortality at 1250 ppm (Mexican bean beetle [3]) of the same molecule?
**A.** 100%

**Q.** And the “% Kill, southern army worm, Initial” value (southern army worm [4])?
**A.** 100%

**Q.** What about the mortality at 1250 ppm (pea aphid [5]) of the same molecule?
**A.** 100%

**Q.** What about the mortality at 1250 ppm (two-spotted spider mite [6]) of the same molecule?
**A.** 100%

**Q.** What about the mortality at 1250 ppm (milkweed bug [7]) of the same molecule?
**A.** 100%

**Q.** And the mortality at 1250 ppm (plum curculio [8])?
**A.** 100%

**Q.** What about the mortality at 1250 ppm (granary weevil [9]) of the same molecule?
**A.** 100%

**Q.** And the mortality at 1250 ppm (confused flour beetle [10])?
**A.** 100%

**Q.** And the mortality at 1250 ppm (Mexican bean beetle [11])?
**A.** 95%

**Q.** And the “% Kill, southern army worm, Residual (7-day)” value (southern army worm [12])?
**A.** 80%

**Q.** And the mortality at 1250 ppm (pea aphid [13])?
**A.** 95%

**Q.** And the mortality at 1250 ppm (two-spotted spider mite [14])?
**A.** 3%

**Q.** What about the mortality at 1250 ppm (milkweed bug [15]) of the same molecule?
**A.** 100%

**Q.** What about the mortality at 1250 ppm (plum curculio [16]) of the same molecule?
**A.** 5%

**Q.** What about the mortality at 1250 ppm (granary weevil [17]) of the same molecule?
**A.** 63%

**Q.** What about the mortality at 1250 ppm (confused flour beetle [18]) of the same molecule?
**A.** 0%

**Q.** What about the mortality at 156 ppm (Mexican bean beetle [19]) of the same molecule?
**A.** 100%

**Q.** What about the “% Kill, southern army worm, systemic” value (southern army worm [20]) of the same molecule?
**A.** 100%

**Q.** What about the mortality at 156 ppm (pea aphid [21]) of the same molecule?
**A.** 100%

**Q.** What about the mortality at 156 ppm (two-spotted spider mite [22]) of the same molecule?
**A.** 73%

**Q.** Which LD50 (adult female houseflies) does the source give for `CN(SN1CCOCC1)C(=O)Oc1cccc2c1OC(C)(C)C2` [II, 2,3-Dihydro-2,2-dimethyl-7-benzofuranyl (Methyl)(morpholinosulfenyl)carbamate] here?
**A.** ~10.5 mg/kg

**Q.** And the LC50 [1]?
**A.** 0.048 µg/mL (≈ 0.142 µM)

**Q.** What about the LD50 at 48 h [2] of the same molecule?
**A.** 10 to 20 mg/kg

**Q.** What about the mortality at 1250 ppm (Mexican bean beetle [3]) of the same molecule?
**A.** 100%

**Q.** What about the “% Kill, southern army worm, Initial” value (southern army worm [4]) of the same molecule?
**A.** 100%

**Q.** And the mortality at 1250 ppm (pea aphid [5])?
**A.** 100%

**Q.** What about the mortality at 1250 ppm (two-spotted spider mite [6]) of the same molecule?
**A.** 97%

**Q.** And the mortality at 1250 ppm (milkweed bug [7])?
**A.** 100%

**Q.** And the mortality at 1250 ppm (plum curculio [8])?
**A.** 100%

**Q.** And the mortality at 1250 ppm (granary weevil [9])?
**A.** 100%

**Q.** What about the mortality at 1250 ppm (confused flour beetle [10]) of the same molecule?
**A.** 100%

**Q.** What about the mortality at 1250 ppm (Mexican bean beetle [11]) of the same molecule?
**A.** 100%

**Q.** And the “% Kill, southern army worm, Residual (7-day)” value (southern army worm [12])?
**A.** 83%

**Q.** And the mortality at 1250 ppm (pea aphid [13])?
**A.** 100%

**Q.** And the mortality at 1250 ppm (two-spotted spider mite [14])?
**A.** 4%

**Q.** And the mortality at 1250 ppm (milkweed bug [15])?
**A.** 100%

**Q.** What about the mortality at 1250 ppm (plum curculio [16]) of the same molecule?
**A.** 100%

**Q.** What about the mortality at 1250 ppm (granary weevil [17]) of the same molecule?
**A.** 100%

**Q.** What about the mortality at 1250 ppm (confused flour beetle [18]) of the same molecule?
**A.** 0%

**Q.** And the mortality at 156 ppm (Mexican bean beetle [19])?
**A.** 100%

**Q.** What about the “% Kill, southern army worm, systemic” value (southern army worm [20]) of the same molecule?
**A.** 100%

**Q.** And the mortality at 156 ppm (pea aphid [21])?
**A.** 100%

**Q.** What about the mortality at 156 ppm (two-spotted spider mite [22]) of the same molecule?
**A.** 76%
